The values that follow are results of earlier work, collected in patent US20200230059A1, “Solid Micronized Melatonin Composition” (Physician's Seal, LLC, priority 2019, published 2020).

Read-outs that look alike come from different tables or passages of the source.

Turning to `COc1ccc2[nH]cc(CCNC(C)=O)c2c1` [Melatonin], the solubility result (gastric environment, pH approximately 1 to 3) is recorded as “relatively high”; the solubility result (lower GI tract environment, pH approximately 5.5 to 7) is on record as “decreases even further”; the solubility result (upper GI tract environment, pH approximately 4.5 to 5.5) is given as “decreases”.
